molecular target: T1, bovine serum albumin (BSA) (Bos taurus, UniProt P02769); assay: intrinsic fluorescence quenching (ex […] nm); format: binding; details: 297 K, pH 7.4, 0.05 M Tris-HCl, 0.1 M NaCl, 5 µM BSA; double-log
T1 construct: gene ALB; commercial fatty acid-free native BSA (Shanghai Shenhang Biotechnology), mature, 583 residues, untagged; PDB 4JK4 used only for docking
T1 sequence (P02769 25-607): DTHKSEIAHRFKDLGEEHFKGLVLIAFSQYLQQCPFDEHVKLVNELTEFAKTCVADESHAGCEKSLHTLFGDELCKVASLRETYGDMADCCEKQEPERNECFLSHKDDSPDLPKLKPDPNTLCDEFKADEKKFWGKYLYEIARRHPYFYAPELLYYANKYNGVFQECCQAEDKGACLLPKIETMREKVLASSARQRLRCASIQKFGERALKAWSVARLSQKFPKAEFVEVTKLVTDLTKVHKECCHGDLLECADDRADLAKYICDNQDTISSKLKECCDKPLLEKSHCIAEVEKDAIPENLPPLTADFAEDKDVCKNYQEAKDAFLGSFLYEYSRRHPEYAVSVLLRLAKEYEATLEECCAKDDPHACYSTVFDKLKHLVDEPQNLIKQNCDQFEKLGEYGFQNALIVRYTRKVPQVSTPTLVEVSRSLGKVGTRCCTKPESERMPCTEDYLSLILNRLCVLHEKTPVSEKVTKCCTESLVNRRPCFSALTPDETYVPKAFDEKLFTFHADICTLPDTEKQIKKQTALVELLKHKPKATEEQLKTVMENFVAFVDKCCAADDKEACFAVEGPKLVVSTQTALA

| Kb (×10^5 L.mol^-1) | Structure (SMILES) |
| --- | --- |
| 0.41 × 10^5 L·mol^−1 | CC(=O)O[C@@H]1[C@@H](O)[C@@H](O)[C@H](Oc2cc(O)c3c(=O)c(O[C@@H]4O[C@@H](C)[C@H](OC(C)=O)[C@@H](OC(C)=O)[C@H]4O)c(-c4ccc(O)cc4)oc3c2)O[C@H]1C [compound 1, kaempferol3-O-α-L-(3,4-O-di-acetyl) rhamopyranoside-7-O-α-L-(4-O-acetyl) rhamnopyranoside] |
| 0.57 × 10^5 L·mol^−1 | CC(=O)O[C@@H]1[C@@H](OC(C)=O)[C@@H](O)[C@H](Oc2c(-c3ccc(O)cc3)oc3cc(O[C@@H]4O[C@@H](C)[C@H](O)[C@@H](O)[C@H]4O)cc(O)c3c2=O)O[C@H]1C [compound 2, crassirhizomoside B] |
| 1.06 × 10^5 L·mol^−1 | CC(=O)O[C@@H]1[C@@H](O)[C@H](C)O[C@@H](Oc2c(-c3ccc(O)cc3)oc3cc(O[C@@H]4O[C@@H](C)[C@H](O)[C@@H](O)[C@H]4O)cc(O)c3c2=O)[C@@H]1O [compound 4, kaempferol 3-O-α-L-(3-O-acetyl) rhamopyranoside-7-O-α-L-rhamnopyranoside] |
| 0.96 × 10^5 L·mol^−1 | CC(=O)O[C@H]1[C@H](Oc2c(-c3ccc(O)cc3)oc3cc(O[C@@H]4O[C@@H](C)[C@H](O)[C@@H](O)[C@H]4O)cc(O)c3c2=O)O[C@@H](C)[C@H](O)[C@H]1O [compound 5, kaempferol 3-O-α-L-(2-O-acetyl) rhamopyranoside-7-O-α-L-rhamnopyranoside] |
